Data on 1 molecule can be found in publication PMC6468747 (Cancers, 2019).

Usually GI50 stands for the concentration at which growth is held to half of that of the control. Lower therefore signals more potent growth inhibition.

Where two headings read alike, the source gives them in different places.

One data set has as its system MDA-MB-468 (BL1). The data set is described as follows: MTT cell growth assay, 7 days. As to conditions: Homo sapiens, MDA-MB-468, 168 h. In kind it is cell-based. Here is the method: (§1) Figure 3 In vitro characterization, pharmacokinetics and toxicity profile of VNLG-152R and its two enantiomers. (A) HPLC chromatograms racemic VNLG-152R (left panel) and the resolved enantiomers VNLG-152E1 and VNLG-152E2 (right panel). The conditions of HPLC procedure are presented in Supplementary Materials. (B) Table summarizing GI50 values (µM) each cell line treated with VNLG-152R and its enantiomers. TNBC cell subtypes were treated with listed compound (0.1 nmol/L–100 µmol/L) for 7 days and the GI50 values for the anti-proliferative effects of the compounds were determined from dose response curves (by a nonlinear regression analysis using Graph Pad Prism). Data represents the results from six independent experiments for each cell line. (C) Plasma concentration versus time profile after intravenous (IV, 2 mg/kg each, top panel) or oral (PO, 20 mg/kg each, bottom panel) of VNLG-152R (red), VNLG-152E1 (purple) and VNLG-152E2 (blue) to female CD1 mice. Values represent the mean plasma concentrations from three mice per time point. (D) Table of the pharmacokinetic parameters of various compounds after IV and PO dosing. AUC = area under the curve, T1/2 = elimination half-life, Cmax = maximum plasma concentration, F (%) = oral bioavailability. (E) Effects of VNLG-152R, VNLG-152E1 and VNLG-152E2 on body weight and clinical observations at chronic dose termination of study. Three different doses, i.e., 10, 25, and 50 mg/kg/day (formulated in 40% β-cyclodextrin in saline) of each compound were administered daily by oral gavage for 14 days. Each group consisted of three mice. Loss in body weight, a clinical sign of toxicity was observed during the 14 days of dosing and the maximum tolerated dose (MTD) was estimated following established procedures. Changes in body weight were scored on a scale of 0–4 as follows as described under methods. […]

For another data set, the system named is MDA-MB-453 (LAR). The data set is described as follows: MTT cell growth assay, 7 days. Type of data set: cell-based. Particulars: Homo sapiens, MDA-MB-453, 168 h. Here is the method: as §1
(Tetrazolium assays rely on reduction of a dye to a coloured formazan, in cell work by metabolically active cells.)

A further data set relates to HCC-1806 (BL2). The data set is described as follows: MTT cell growth assay, 7 days. In kind it is cell-based. Particulars: Homo sapiens, HCC1806, 168 h. Here is the method:
as §1

A further data set has as its system MDA-MB-231 (MSL). The data set is described as follows: MTT cell growth assay, 7 days. Type of data set: cell-based. Particulars: Homo sapiens, MDA-MB-231, 168 h. Here is the method:
as §1

For a further data set, the system named is MFM-223 (LAR). The data set is described as follows: MTT cell growth assay, 7 days. Type of data set: cell-based. Particulars: Homo sapiens, MFM-223, 168 h. Here is the method: as §1
In the next data set the test system is MDA-MB-436 (MSL). The data set is described as follows: MTT cell growth assay, 7 days. In kind it is cell-based. As to conditions: Homo sapiens, MDA-MB-436, 168 h. Here is the method:
as §1

The subject of a further data set is eIF4F complex. The data set is described as follows: m7GTP pull-down of eIF4F complex in TNBC cells. Type of data set: cell-based, human. Particulars: 20 µM, 24 h, MDA-MB-231 and MDA-MB-468. Here is the method: eIF4F complex in cell extracts was detected using affinity chromatography 7-methyl GTP (m7GTP)-Sepharose as described previously. Briefly, MDA-MB-231 treated with 20 μM VNLG-152 for 24 h were lysed in buffer containing 20 mM Tris-HCl (pH 7.4), 150 mM NaCl, 1 mM EDTA, 1 mM EGTA, 1 mM β-glycerophosphate, 1 mM Na3VO4, 1% Triton X-100, 2.5 mM sodium pyrophosphate, and protease inhibitor cocktail, on ice for 15 min. After centrifugation at 12,000× g for 15 min at 4 °C, the supernatants were collected and incubated with m7GTP-Sepharose (GE Healthcare Bio-Sciences Corp./Amersham, Piscataway, NJ, USA) at 4 °C for 2 h with constant shaking. Beads were washed three times with lysis buffer and three times with 1× Phosphate Buffered Salin, (PBS). The samples were then denatured, and the supernatants were then loaded to SDS-PAGE for immunoblotting.

The next data set has as its system Br-001 tumor xenografts. The data set is described as follows: Patient-derived TNBC xenograft (PDX), IP. Type of data set: in vivo, mice. Particulars: 10 mg/kg/day IP. Here is the method:
Female NSG (NOD.Cg-PrkdcscidIl2rgtm1Wjl/SzJ) mice (Jackson Laboratory) 5–6 weeks of age were housed under complete aseptic conditions, fed autoclaved pellets and sterile water ad libitum. Primary triple negative breast cancer tissue from a patient in University of Maryland Medical Center ([…]) was excised during surgery, de-identified and then implanted into the mammary fat pad of female NSG mice. After expansion and viable freeze back, breast PDX (Br-001) was grown in three mice as a subcutaneous tumor. When tumors reached approximately 600–800 mm^3, mice were euthanized, tumors excised aseptically and cut into 3 mm × 3 mm pieces and re-implanted subcutaneously in female NSG mice. The established xenografts were subsequently passaged from mouse to mouse to expand xenograft numbers. […] Tumors were measured and processed as described for the MDA-MB-231 xenograft model.
A general note: Xenograft models place foreign cells or tissue in a host animal.

Another data set has as its system MDA-MB-468 cells. The data set is described as follows: Head-to-head MTT antiproliferative assay, 6-day exposure. In kind it is cell-based, human. Here is the method: (§2) Figure 2 VNLG-152R inhibits mTORC1 signaling and the production of pro-inflammatory cytokines. (A) MDA-MB-231 and MDA-MB-468 cells were treated with the indicated concentrations of VNLG-152R for 72 h. Cell lysates were analyzed by immunoblotting with the indicated antibodies. (B) Head-to-head antiproliferative effects of VNLG-152R and eFT508 on MDA-MB-231 and MDA-MB-468 cells. The dose-response curves were generated from MTT assays after 6-day exposure to different concentrations of the compounds. Each point is a mean of replicates from three independent experiments. (C–E) MDA-MB-231 cell were treated with the indicated concentration of VNLG-152R or eFT508 for 72 h. Cell supernatants were collected, and the indicated cytokines were quantitated by Multiplex Luminex assay.
(§3) Cell growth inhibition assay was performed as described previously. For cell growth experiment, cells were treated with the VNLG-152R, VNLG-152E1 or VNLG-15E2 for 7 days. MTT assay was performed at the end of the experiment. Results represent the mean ± standard deviation of three independent experiments.

For the next data set, the system named is MDA-MB-231 cells. The description is as above. In kind it is cell-based, human. Here is the method:
as §2, §3

A further data set deals with Mnk1/2. On the set-up: method as in PMID 24504069. As to conditions: cited from earlier work.

In the case of `CC1=C(/C=C/C(C)=C/C=C/C(C)=C/C(=O)Nc2ccc(F)cc2)C(C)(C)CCC1n1ccnc1` (racemic) [VNLG-152R, 4-(±)-(1H-imidazol-1-yl)-N-(4-fluorophenyl)-(E)-retinamide], the GI50 in the data set on MDA-MB-468 (BL1) came to 890 ± 60 nM; with MDA-MB-453 (LAR) it was 740 ± 30 nM; in the data set with HCC-1806 (BL2), 810 ± 40 nM; with MDA-MB-231 (MSL), 620 ± 30 nM; in the data set with MFM-223 (LAR), 1860 ± 120 nM; with MDA-MB-436 (MSL), 890 ± 30 nM. Also, the GI50 turned out to be 500 nM with MDA-MB-468 cells; 501 nM in the data set on MDA-MB-468 cells (Homo sapiens, MDA-MB-468, 144 h); 890 nM in the data set on MDA-MB-231 cells; 891 nM with MDA-MB-231 cells (Homo sapiens, MDA-MB-231, 144 h). Also, the “eIF4G and 4E-BP1 association with eIF4E” value with eIF4F complex is “decreased eIF4G and increased eukaryotic translation initiation factor 4E-binding protein 1 (4E-BP1) association with eIF4E”. Further, in the data set on Br-001 tumor xenografts, the “changes in body weights” value is on record as “No significant changes in body weights were observed”. In addition, the “tumor growth inhibition (TGI)” value with Br-001 tumor xenografts (5 days a week, 17 days) is on record as 73.3%. In addition, the “fold difference of GI50 (eFT508 vs VNLG-152R)” value is 105 fold in the data set on MDA-MB-468 cells and 8 fold with MDA-MB-231 cells. Moreover, in the data set on Mnk1/2, the “inhibition of Mnk1/2 kinase activities” value is listed as “no inhibition of Mnk1/2 kinase activities”.
